Results on 8 molecules are retold here after patent US9133219B2, “Bicyclic antibiotics” (Basilea Pharmaceutica AG, priority 2009, dated 2015).

In brackets after ≈: the same amount, converted by molar mass.

What all share (assay type): cell-based
The subject of assay [1] is Escherichia coli. Description: Anti-microbial activity assay, MIC by broth microdilution. As to conditions: Escherichia coli; strain UB1005; read-out: MIC Escherichia coli UB1005. Here is the method: (§1) Anti-Microbial Activity Assay.
(§2) The antibacterial activity of compounds is determined by the minimal inhibitory concentration (MIC) method. MICs for all bacteria except pneumococci and Haemophilus influenzae are obtained by broth microdilution with cation-adjusted Mueller-Hinton broth (CAMHB; BBL), according to CLSI guidelines (National Committee for Clinical Laboratory Standards. 2003. Methods for dilution antimicrobial susceptibility tests for bacteria that grow aerobically, 5th ed.; approved standard M7-A6. National Committee for Clinical Laboratory Standards, Wayne, Pa.), with the following modifications: (i) for pneumococci CAMHB is supplemented with 5% (^v/v) horse serum; (ii) for Haemophilus influenzae CAMHB is supplemented with 5% (^v/v) Fildes enrichment (BBL) (Pankuch, G. A., Hoellman, D. B., Lin, G., Bajaksouzian, S., Jacobs, M. R., and Appelbaum, P. C. 1998. Activity of HMR 3647 compared to those of five agents against Haemophilus influenzae and Moraxella catarrhalis by MIC determination and time-kill assay. Antimicrob. Agents Chemother. 42:3032-3034). Microtiter plates are incubated at 35° C. in ambient air for 20 to 24 h, then inspected using an illuminated microtiter plate reader fitted with a magnifying mirror (MIC 2000; Cooke Laboratory Products, Alexandria, Va.). Compounds of the present invention are tested against several bacteria strains comprising some Acinetobacter baumannii, Enterococcus faecalis, Enterococcus faecitan, Escherichia coli, Haemophilus influenzae, Klebsiella pneumoniae, Pseudomonas aeruginosa, Staphylococcus aureus, Staphylococcus epidermidis and Streptococcus pneumoniae.

Assay [2] concerns Staphylococcus aureus. Described as above. To be noted: Staphylococcus aureus; strain ATCC29213; read-out: MIC Staphylococcus aureus ATCC29213. Here is the method:
as §1, §2

Assay [3] deals with Staphylococcus epidermidis. Described as above. As to conditions: Staphylococcus epidermidis; strain ATCC14990. Here is the method: as §1, §2
Assay [4] relates to Streptococcus pneumoniae. Description: Anti-microbial activity assay, MIC by broth microdilution (CAMHB with 5% horse serum). As to conditions: Streptococcus pneumoniae; strain ATCC49619; CAMHB with 5% horse serum; read-out: MIC Streptococcus pneumoniae ATCC49619. Here is the method: as §1, §2
Assay [5] relates to Staphylococcus aureus and/or Staphylococcus epidermidis. Description: MIC summary statement, staphylococci. To be noted: generally, for Staphylococcus aureus and/or Staphylococcus epidermidis. Here is the method: as §1, §2
In assay [6] the test system is Staphylococcus aureus and/or Staphylococcus epidermidis and/or Streptococcus pneumoniae. Description: MIC summary statement, staphylococci and pneumococci. As to conditions: generally, for Staphylococcus aureus and/or Staphylococcus epidermidis and/or Streptococcus pneumoniae. Here is the method:
as §1, §2

With `COc1ccc2ncc(OCCN3CCC(NC(=O)c4cc(-c5cccs5)on4)CC3)nc2c1` [Example 5, 5-thiophen-2-yl-isoxazole-3-carboxylic acid {1-[2-(7-methoxy-quinoxalin-2-yloxy)-ethyl]-piperidin-4-yl}-amide], the MIC is more than 32 mg/L in assay [1]; not above 2 mg/L in assay [2]; not above 2 mg/L in assay [3]; not above 2 mg/L in assay [4]; not above 2 mg/L in assay [5]; not above 2 mg/L in assay [6].

Take `COc1ccc2ncc(SCCN3CCC(NC(=O)c4cc(-c5cccs5)on4)CC3)nc2c1` [Example 35, 5-thiophen-2-yl-isoxazole-3-carboxylic acid {1-[2-(7-methoxy-quinoxalin-2-ylsulfanyl)-ethyl]-piperidin-4-yl}-amide]: the MIC in assay [1] is more than 32 mg/L; in assay [2] it was not above 2 mg/L; in assay [3] it was not above 2 mg/L; in assay [4], not above 2 mg/L; in assay [5] it was not above 2 mg/L; in assay [6] it was not above 2 mg/L.

Regarding `COc1ccc2ncc(SCCN3CCC(NCCSc4cccs4)CC3)nc2c1` [Example 38, {1-[2-(7-methoxy-quinoxalin-2-ylsulfanyl)-ethyl]-piperidin-4-yl}-[2-(thiophen-2-ylsulfanyl)-ethyl]-amine], the MIC was 16 mg/L (≈ 34.7 µM) in assay [1]; not above 2 mg/L in assay [2]; not above 2 mg/L in assay [3]; not above 2 mg/L in assay [4]; not above 2 mg/L in assay [5]; not above 2 mg/L in assay [6].

On to `COc1ccc2ncc(SCCN3CCC(NC(=O)c4ccc5c(c4)OCCO5)CC3)nc2c1` [Example 39, 2,3-dihydro-benzo[1,4]dioxine-6-carboxylic acid {1-[2-(7-methoxy-quinoxalin-2-ylsulfanyl)-ethyl]-piperidin-4-yl}-amide], for which the MIC in assay [1] was not below 32 mg/L; in assay [2] it was not above 2 mg/L; in assay [3], not above 2 mg/L; in assay [4], not above 2 mg/L; in assay [5], not above 2 mg/L; in assay [6] it was not above 2 mg/L.

On to `COc1ccc2ncc(SCCN3CCC(NCc4ccc5c(c4)OCCO5)CC3)nc2c1` [Example 41, (2,3-dihydro-benzo[1,4]dioxin-6-ylmethyl)-{1-[2-(7-methoxy-quinoxalin-2-ylsulfanyl)-ethyl]-piperidin-4-yl}-amine], for which the MIC in assay [1] is 8 mg/L (≈ 17.1 µM); in assay [2], not above 2 mg/L; in assay [3], not above 2 mg/L; in assay [4], not above 2 mg/L; in assay [5], not above 2 mg/L; in assay [6], not above 2 mg/L.

In the case of `COc1ccc2ncc(SCCN3CCC(NCc4cc(-c5cccs5)on4)CC3)nc2c1` [Example 42, {1-[2-(7-methoxy-quinoxalin-2-ylsulfanyl)-ethyl]-piperidin-4-yl}-(5-thiophen-2-yl-isoxazol-3-ylmethyl)-amine], the MIC is 8 mg/L (≈ 16.6 µM) in assay [1]; not above 2 mg/L in assay [2]; not above 2 mg/L in assay [3]; not above 2 mg/L in assay [4]; not above 2 mg/L in assay [5]; not above 2 mg/L in assay [6].

With `COc1ccc2ncc(SCCN3CCC(N(C)Cc4ccc5c(c4)OCCO5)CC3)nc2c1` [Example 43, (2,3-dihydro-benzo[1,4]dioxin-6-ylmethyl)-{1-[2-(7-methoxy-quinoxalin-2-ylsulfanyl)-ethyl]-piperidin-4-yl}-methyl-amine], the minimum inhibitory concentration (MIC) was 16 mg/L (≈ 33.3 µM) in assay [1]; not above 2 mg/L in assay [2]; not above 2 mg/L in assay [3]; not above 2 mg/L in assay [4]; not above 2 mg/L in assay [5]; not above 2 mg/L in assay [6].

For `CCN(Cc1ccc2c(c1)OCCO2)C1CCN(CCSc2cnc3ccc(OC)cc3n2)CC1` [Example 47, (2,3-dihydro-benzo[1,4]dioxin-6-ylmethyl)-ethyl-{1-[2-(7-methoxy-quinoxalin-2-ylsulfanyl)-ethyl]-piperidin-4-yl}-amine], the MIC in assay [1] was 32 mg/L (≈ 64.7 µM); in assay [2] it was not above 2 mg/L; in assay [3], not above 2 mg/L; in assay [4] it was not above 2 mg/L; in assay [5], not above 2 mg/L; in assay [6], not above 2 mg/L.
